This note sets out measurements from patent US20240067613A1, “NOVEL QUINAZOLINE DERIVATIVES AS SOS1 INHIBITORS AND USE THEREOF” (HANMI PHARMACEUTICAL CO., LTD., priority 2020, published 2024).

Molecules are shown by their SMILES.

For orientation: IC50 means the concentration that gives 50% inhibition. Low values mean greater potency in that assay, high ones weaker potency in that assay.

This experiment has as its target T1, SOS1 binding to KRAS G12C (Homo sapiens, UniProt Q07889).
T1 construct: consisting of amino acid residues 564 to 1049 which are the catalytic domain; purchased Reaction Biology Corporation MSC-11-502 (SOS1-Strep); MSC-11-538 (KRAS G12C)
T1 sequence (Q07889 564-1049): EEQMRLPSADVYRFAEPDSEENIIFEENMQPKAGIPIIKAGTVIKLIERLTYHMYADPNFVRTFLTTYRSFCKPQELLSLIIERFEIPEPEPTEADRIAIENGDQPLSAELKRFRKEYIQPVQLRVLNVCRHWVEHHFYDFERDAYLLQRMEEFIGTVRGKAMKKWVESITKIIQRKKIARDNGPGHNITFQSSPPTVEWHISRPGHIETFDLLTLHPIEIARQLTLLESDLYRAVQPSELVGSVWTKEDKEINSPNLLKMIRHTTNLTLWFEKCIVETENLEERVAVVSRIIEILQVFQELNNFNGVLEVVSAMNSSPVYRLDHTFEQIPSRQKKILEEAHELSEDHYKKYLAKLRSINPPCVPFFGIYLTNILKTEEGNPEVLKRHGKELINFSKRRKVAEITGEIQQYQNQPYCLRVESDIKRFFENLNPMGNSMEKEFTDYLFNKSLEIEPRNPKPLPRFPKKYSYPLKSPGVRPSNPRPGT
Put plainly: SOS1 GTP substitution inhibition test (HTRF/TR-FRET, KRAS G12C-SOS1 binding inhibitory ability). Format: biochemical. The following applies: HTRF, GST-KRAS G12C (2-169), SOS1-Strep (564-1049), 1.6, 8, 40, 200, 1,000 nM. The protocol: In order to determine whether the substitution function of SOS1 binding to KRAS G12C is inhibited by the above-described example compounds, a homogeneous time-resolved fluorescence (HTRF) test was performed using G12C(#MSC-11-538) and SOS1-Strep(#MSC-11-502) purchased from Reaction Biology Corporation (MA, USA). The activity of SOS1 enzyme was determined by measuring the amount of GTP bound to KRAS G12C proteins, using the principle of time-resolved fluorescence energy transfer (TR-FRET). Based on the principle that terbium bound to the GST-binding antibody of the GST-KRAS G12C protein acts as a donor of fluorescence resonance energy transfer (FRET), and the GTP bound to the KRAS G12C protein is labeled with the fluorescent agent DY-647P1 and acts as a receiver, when the more GTP is bound to the KRAS G12C protein by the substitution reaction of SOS1 according to this test, the higher HTRF or FRET signal is measured. To summarize, glutathione S-transferase (GST)-tagged KRAS G12C proteins (consisting of amino acid residues 2 to 169) required for the reaction, streptavidin-tagged SOS1 proteins (consisting of amino acid residues 564 to 1049 which are the catalytic domain), anti-GST antibody (#61[…]) purchased from CISBIO corporation, nucleic acid (#NU-820-647P1) purchased from Jena Bioscience GmbH were mixed in a buffer solution formed from 10 mM HEPES pH7.4, 150 mM NaCl, 5 mM MgCl2, and 1 mM dithiothreitol (DTT), and the mixture was added to a 384-well plate and reacted at room temperature. Next, FRET signals were measured with a Perkin Elmer Envision microplate reader. In this case, an excitation signal (excitation) was measured at 320 nm, and an emission signal (emission) was measured at 615/665 nm. The fluorescence measurement value when the SOS1 protein was not included was calculated as a background signal value, and the background signal value was subtracted from all of the measured HTRF values. The fluorescence measurement value when the synthesized compound was not included was measured as a control value, and this value was selected as a reference point of 100%. For each of the example compounds, fluorescence was measured at concentrations of 1.6, 8, 40, 200, and 1,000 nM (5 points, 5-fold), and the 50% activity inhibition value (IC50) of each of the compounds was calculated using GraphPad Prism. When the IC50 value was 50 nM or less, the inhibitory ability was denoted as +++. When the IC50 value was more than 50 nM and 100 nM or less, the inhibitory ability was denoted as ++. When the IC50 value was more than 100 nM, the inhibitory ability was denoted as +.
On the technique in general: In TR-FRET formats the signal depends on donor and acceptor labels being close together.
In the case of `COc1cc2c(N[C@H](C)c3cc(N)cc(C(F)F)c3F)nc(C)nc2cc1C(=O)N1CCOCC1` [Example 26, (R)-(4-((1-(5-amino-3-(difluoromethyl)-2-fluorophenyl)ethyl)amino)-6-methoxy 2-methylquinazolin-7-yl)(morpholino)methanone], the IC50 was ≤ 50 nM.
The result for `Cc1nc(N[C@H](C)c2cc(N)cc(C(F)(F)F)c2)c2cc(O[C@H]3CCOC3)c(C(=O)N3CCOCC3)cc2n1` [Example 27, (4-(((R)-1-(3-amino-5-(trifluoromethyl)phenyl)ethyl)amino)-2-methyl-6-(((S)-tetrahydrofuran-3-yl)oxy)quinazolin-7-yl)(morpholino)methanone] reads 50 to 100 nM.
Consider `COc1cc2c(N[C@H](C)c3cc(N)cc(-c4ccoc4)c3)nc(C)nc2cc1C(=O)N1CCOCC1` [Example 28, (R)-(4-((1-(3-amino-5-(furan-3-yl)phenyl)ethyl)amino)-6-methoxy-2-methylquinazolin-7-yl)(morpholino)methanone], for which the IC50 is ≤ 50 nM.
The same measure for `COc1cc2c(N[C@H](C)c3cc(N)cc(C(F)F)c3)nc(C)nc2cc1C(=O)N1CCOCC1` [Example 29, (R)-(4-((1-(3-amino-5-(difluoromethyl)phenyl)ethyl)amino)-6-methoxy-2-methylquinazolin-7-yl)(morpholino)methanone]: ≤ 50 nM; for `COc1cc2c(N[C@H](C)c3cc(N)cc(-c4cncs4)c3)nc(C)nc2cc1C(=O)N1CCOCC1` [Example 30, (R)-(4-((1-(3-amino-5-(thiazole-5-yl)phenyl)ethyl)amino)-6-methoxy-2-methylquinazolin-7-yl)(morpholino)methanone]: 50 to 100 nM.
The result for `CCNc1cc([C@@H](C)Nc2nc(C)nc3cc(C(=O)N4CCOCC4)c(OC)cc23)cc(C(F)(F)F)c1` [Example 31, (R)-(4-((1-(3-(ethylamino)-5-(trifluoromethyl)phenyl)ethyl)amino)-6-methoxy-2-methylquinazolin-7-yl)(morpholino)methanone] reads 50 to 100 nM; that for `COCCOc1cc2c(N[C@H](C)c3cc(N)cc(C(F)(F)F)c3)nc(C)nc2cc1C(=O)N1CCOCC1` [Example 32, methyl (R)-(4-((1-(3-amino-5-(trifluoromethyl)phenyl)ethyl)amino)-6-(2-methoxyethoxy)-2-methylquinazolin-7-yl)(morpholino)methanone], > 100 nM.
On to `COc1cc2c(N[C@H](C)c3cc(N)cc(C(F)(F)F)c3)nc(CF)nc2cc1C(=O)N1CCOCC1` [Example 33, (R)-(4-((1-(3-amino-5-(trifluoromethyl)phenyl)ethyl)amino)-2-(fluoromethyl)-6-methoxyquinazolin-7-yl)(morpholino)methanone], for which the IC50 is > 100 nM.
For the compound `COc1cc2c(N[C@H](C)c3cc(N)cc(C(F)(F)F)c3)nc(C)nc2cc1CN1CCOCC1` [Example 34, (R)-N-(1-(3-amino-5-(trifluoromethyl)phenyl)ethyl)-6-methoxy-2-methyl-7-(morpholinomethyl)quinazoline-4-amine], the IC50 was > 100 nM.
The result for `COc1cc2c(N[C@H](C)c3cc(N)cc(C(F)F)c3F)nc(C)nc2cc1CN1CCOCC1` [Example 35, (R)-N-(1-(5-amino-3-(difluoromethyl)-2-fluorophenyl)ethyl)-6-methoxy-2-methyl-7-(morpholinomethyl)quinazoline-4-amine] reads ≤ 50 nM.
Take `COc1cc2c(N[C@H](C)c3cc(N)cc(C(F)(F)F)c3)nc(C)nc2cc1OC1CCOCC1` [Example 36]: the half-maximal inhibitory concentration (IC50) was in the range of 50 to 100 nM.
The result for `COc1cc2c(N[C@H](C)c3cc(N)cc(C(F)F)c3F)nc(C)nc2cc1OC1CCOCC1` [Example 37, (R)-N-(1-(5-amino-3-(difluoromethyl)-2-fluorophenyl)ethyl)-6-methoxy-2-methyl-7-((tetrahydro-2H-pyran-4-yl)oxy)quinazoline-4-amine] reads > 100 nM; that for `COc1cc2c(N[C@H](C)c3cc(N)cc(C(F)(F)F)c3)nc(C)nc2cc1OCC1CCOCC1` [Example 38, (R)-N-(1-(3-amino-5-(trifluoromethyl)phenyl)ethyl)-6-methoxy-2-methyl-7-((tetrahydro-2H-pyran-4-yl)methoxy)quinazoline-4-amine], > 100 nM.
On to `COc1cc2c(N[C@H](C)c3cc(N)cc(C(F)(F)F)c3)nc(C)nc2cc1OCC1COC1` [Example 39, (R)-N-(1-(3-amino-5-(trifluoromethyl)phenyl)ethyl)-6-methoxy-2-methyl-7-(oxetane-3-ylmethoxy)quinazoline-4-amine], for which the half-inhibitory concentration (IC50) was > 100 nM.
The result for `CNc1cc2c(N[C@H](C)c3cc(N)cc(C(F)(F)F)c3)nc(C)nc2cc1C(=O)N1CCOCC1` [Example 40, (R)-(4-((1-(3-amino-5-(trifluoromethyl)phenyl)ethyl)amino)-2-methyl-6-(methylamino)quinazoline-7-yl)(morpholino)methanone] reads ≤ 50 nM; that for `Cc1nc(N[C@H](C)c2cc(N)cc(C(F)(F)F)c2)c2cc(N(C)C)c(C(=O)N3CCOCC3)cc2n1` [Example 41, (R)-(4-((1-(3-amino-5-(trifluoromethyl)phenyl)ethyl)amino)-6-(dimethylamino)-2-methylquinazoline-7-yl)(morpholino)methanone], 50 to 100 nM; that for `Cc1nc(N[C@H](C)c2cc(N)cc(C(F)(F)F)c2)c2cc(N3CCCC3)c(C(=O)N3CCOCC3)cc2n1` [Example 42, (R)-(4-((1-(3-amino-5-(trifluoromethyl)phenyl)ethyl)amino)-2-methyl-6-(pyrrolidin-1-yl)quinazoline-7-yl)(morpholino)methanone], > 100 nM.
The result for `CNc1cc2c(N[C@H](C)c3cc(N)cc(C(F)F)c3F)nc(C)nc2cc1C(=O)N1CCOCC1` [Example 43, (R)-(4-((1-(5-amino-3-(difluoromethyl)-2-fluorophenyl)ethyl)amino)-2-methyl-6-(methylamino)quinazoline-7-yl)(morpholino)methanone] reads ≤ 50 nM; that for `COCCNc1cc2c(N[C@H](C)c3cc(N)cc(C(F)(F)F)c3)nc(C)nc2cc1C(=O)N1CCOCC1` [Example 44, (R)-(4-((1-(3-amino-5-(trifluoromethyl)phenyl)ethyl)amino)-6-((2-methoxyethyl)amino)-2-methylquinazoline-7-yl)(morpholino)methanone], 50 to 100 nM.
The same measure for `Cc1nc(N[C@H](C)c2cc(N)cc(C(F)(F)F)c2)c2cc(NC3CCCC3)c(C(=O)N3CCOCC3)cc2n1` [Example 45, (R)-(4-((1-(3-amino-5-(trifluoromethyl)phenyl)ethyl)amino)-6-(cyclopentylamino)-2-methylquinazoline-7-yl)(morpholino)methanone]: 50 to 100 nM.
`CCNc1cc2c(N[C@H](C)c3cc(N)cc(C(F)(F)F)c3)nc(C)nc2cc1C(=O)N1CCOCC1` [Example 46, (R)-(4-((1-(3-amino-5-(trifluoromethyl)phenyl)ethyl)amino)-6-(ethylamino)-2-methylquinazoline-7-yl)(morpholino)methanone] gave an IC50 of 50 to 100 nM.
Compound `Cc1nc(N[C@H](C)c2cc(N)cc(C(F)(F)F)c2)c2cc(NC(C)C)c(C(=O)N3CCOCC3)cc2n1` [Example 47, (R)-(4-((1-(3-amino-5-(trifluoromethyl)phenyl)ethyl)amino)-6-(isopropylamino)-2-methylquinazoline-7-yl)(morpholino)methanone] yielded a concentration for half-maximal inhibition (IC50) of 50 to 100 nM.
